Read-outs that look alike come from different tables or passages of the source. Starred links: 1 amine or outer side, 2 acyl side, 3 side chain; linkers in the order of their positions; H or OH if unused. Positions of bridges follow the written chain, without caps; N, C: chain ends. Residues, ends and D or L forms follow the SMILES beside them. X1 = Clc1cc([*:1])cc(Cl)c1N=Nc1c(Cl)cc([*:2])cc1Cl

Data set [1] has as its target T1, p53-interacting domain of human MDM2 (MDM2 6-125) (Homo sapiens, UniProt Q00987).
T1 construct: human MDM2 (MDM26–125)
In words: MDM2 direct fluorescence polarisation binding assay. Conditions: direct FP, 15 nM tracer, MDM2 titrated from 9.75 uM, 18-point, PBS 0.05% Tween-20 3% DMSO, 1:1 binding model. As for the experimental part:
To assess the binding affinity of the precursor peptide P1 and the photoswitchable stapled peptide SP1 for MDM2, a competitive fluorescence polarisation (FP) assay was carried out using the p53-interacting domain of human MDM2 (MDM26–125). […] The inhibitory constants (Ki) for all peptides were subsequently determined. […] This can be attributed the loss in α-helicity observed for P1, in comparison to that of PMI,[34] measured by CD analysis. To induce in situ isomerisation, SP1 was irradiated with red or purple light in FP buffer prior to commencing the experiment. […] The Ki values for each isomer were determined from their corresponding inflection points in the fitted sigmoidal curve. […]
The half-life of the metastable cis SP1 form in FP assay buffer was determined by analytical HPLC analysis (Figure S3). […]
P1 and SP1 (10 μL, 10 mM stock in DMSO) were incubated with PBS (1x, 500 μL), human serum (50 μL) and caffeine (10 μL of a 11.25 mg/mL solution in MQ water) at 37 °C for 5 days. […] The samples were spun at 13400 g for 10 minutes and the supernatant analysed by HPLC analysis, with a 5-95% B gradient (A: 0.05% (v/v) TFA in H2O, B: 0.05% (v/v) TFA in MeCN) over 18 minutes at 220 nm.
Caffeine was used as an internal standard to enable quantification of degradation over time. […]
7 Fluorescence Polarisation (FP) Assay […]
7.1 MDM2 Fluorescence Polarisation Binding Assay […]

Data set [2] is described as follows: Serum stability study monitored by HPLC. The format is in vitro ADME, human. Conditions: 37 °C, HPLC 220 nm. As for the experimental part: The stability of SP1 in human serum was investigated and compared to the stability of its linear precursor P1 and the parent PMI (Fig. 6). The stability of the peptides at 37 °C in human serum was monitored throughout 5 days by HPLC.
Fig. 6 Stability of the precursor peptide P1, the parent PMI and SP1 in human serum at 37 °C, over 5 days, monitored by HPLC at 220 nm. […]
6.2 Serum Stability Studies
P1 and SP1 (10 μL, 10 mM stock in DMSO) were incubated with PBS (1x, 500 μL), human serum (50 μL) and caffeine (10 μL of a 11.25 mg/mL solution in MQ water) at 37 °C for 5 days. At specific intervals, aliquots (25 μL) of the reaction mixture were taken, flash frozen in liquid nitrogen and stored at -20 °C prior to analysis on the same day. Upon unfreezing, the samples were quenched with 25 μL of 96% ethanol and 25 μL of DMSO. The samples were spun at 13400 g for 10 minutes and the supernatant analysed by HPLC analysis, with a 5-95% B gradient (A: 0.05% (v/v) TFA in H2O, B: 0.05% (v/v) TFA in MeCN) over 18 minutes at 220 nm.
Caffeine was used as an internal standard to enable quantification of degradation over time. The experiment was performed in duplicates (Table S2-4). […]

Setting [3] is: human, human serum diluted in PBS, replicate 1, human serum 50 uL in PBS 500 uL, caffeine internal standard, read-out: Normalised Linker % (peptide remaining).
The mark [4] stands for this setting: human, human serum diluted in PBS, replicate 2, human serum 50 uL in PBS 500 uL, caffeine internal standard, read-out: Normalised Linker % (peptide remaining).
Where [5] appears, read: human, human serum diluted in PBS, 24 h, replicate 2, human serum 50 uL in PBS 500 uL, caffeine internal standard, read-out: Normalised Linker % (peptide remaining).

T1 sequence (Q00987 6-125 limits assumed): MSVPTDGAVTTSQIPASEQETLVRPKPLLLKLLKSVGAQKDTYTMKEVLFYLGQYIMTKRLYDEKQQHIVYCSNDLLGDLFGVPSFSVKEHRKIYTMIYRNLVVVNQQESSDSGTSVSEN

One may read the Kd as a measure of binding affinity in units of concentration. Consider `CSCC[C@H](NC(=O)[C@H](Cc1ccccc1)NC(=O)[C@H](CCCNC(=N)N)NC(=O)c1ccc2c(c1)C(=O)OC21c2ccc(N(C)C)cc2Oc2cc(N(C)C)ccc21)C(=O)N[C@@H](CC(=O)O)C(=O)N[C@@H](Cc1ccc(O)cc1)C(=O)N[C@@H](Cc1c[nH]c2ccccc12)C(=O)N[C@@H](CCC(=O)O)C(=O)NCC(=O)N[C@@H](CC(C)C)C(N)=O` [FP tracer peptide, TAMRA-RFMDYWEGL-NH2], for which binding in data set [1] was characterised by a dissociation constant (Kd) of 7.6 nM.
One may read the fraction remaining as what is left of the initial amount, in per cent. As for `CC(=O)N[C@H](C(=O)N[C@@H](CO)C(=O)N[C@@H](Cc1ccccc1)C(=O)N[C@@H](C)C(=O)N[C@@H](CS)C(=O)N[C@@H](Cc1ccc(O)cc1)C(=O)N[C@@H](Cc1c[nH]c2ccccc12)C(=O)N[C@@H](CC(N)=O)C(=O)NCC(=O)N[C@@H](CC(C)C)C(=O)N[C@@H](CO)C(=O)N[C@@H](CS)C(N)=O)[C@@H](C)O` [Peptide P1] (Ac-TSFACYWNGLSC-NH2), in data set [2] (1 h, replicate 2, without the addition of TCEP, human serum 50 uL in PBS 500 uL, caffeine internal standard), the “Normalised Linker % (peptide remaining)” value is 0.000%. The fraction remaining at 0.5 h, 175 µM in data set [2] (human serum diluted in PBS, 0.5 h, replicate 1, without the addition of TCEP, human serum 50 uL in PBS 500 uL, caffeine internal standard, read-out: Normalised Linker % (peptide remaining)) was 12.8%. For the same compound, the share remaining at 1 h, 175 µM in data set [2] (human serum diluted in PBS, 1 h, replicate 1, without the addition of TCEP, human serum 50 uL in PBS 500 uL, caffeine internal standard, read-out: Normalised Linker % (peptide remaining)) amounted to 0%.
Consider `CC(=O)N[C@H](C(=O)N[C@@H](CO)C(=O)N[C@@H](Cc1ccccc1)C(=O)N[C@@H](C)C(=O)N[C@H]1CSc2cc(Cl)c(c(Cl)c2)N=Nc2c(Cl)cc(cc2Cl)SC[C@@H](C(N)=O)NC(=O)[C@H](CO)NC(=O)[C@H](CC(C)C)NC(=O)CNC(=O)[C@H](CC(N)=O)NC(=O)[C@H](Cc2c[nH]c3ccccc23)NC(=O)[C@H](Cc2ccc(O)cc2)NC1=O)[C@@H](C)O` [SP1] (Ac-TSFACYWNGLSC-NH2; linker 5-12 via X1), for which the “stability in human serum compared with P1 and PMI” value in data set [2] (human serum, 5 days) was “markedly improved stability”. In addition, in data set [2] (setting [3]), the share remaining at 2 h, 175 µM amounted to 88.6%; the fraction remaining at 72 h, 175 µM was 79.2%; the share remaining at 120 h, 175 µM came to 82.4%. In data set [2] (setting [4]), the fraction remaining at 2 h, 175 µM came out at 89%; the share remaining at 72 h, 175 µM was 53.6%; the fraction remaining at 120 h, 175 µM came to 48%. The share remaining at 24 h, 175 µM in data set [2] (human, human serum diluted in PBS, 24 h, replicate 1, human serum 50 uL in PBS 500 uL, caffeine internal standard, read-out: Normalised Linker % (peptide remaining)) stood at 82.9%. Besides, the amount remaining at 24 h, 175 µM in data set [2] (setting [5]) came to 72.4%.
Take “Ac-TSFAEYWNNLSP-NH2 [PMI, reference compound]”: in data set [2] (24 h, replicate 1, human serum 50 uL in PBS 500 uL, caffeine internal standard), the “Normalised Linker % (peptide remaining)” value was 0.000%. Further, the amount remaining at 1 h, 175 µM in data set [2] (human, human serum diluted in PBS, 1 h, replicate 1, human serum 50 uL in PBS 500 uL, caffeine internal standard, read-out: Normalised Linker % (peptide remaining)) was 87.2%. Besides, in data set [2] (human, human serum diluted in PBS, 1 h, replicate 2, human serum 50 uL in PBS 500 uL, caffeine internal standard, read-out: Normalised Linker % (peptide remaining)), the amount remaining at 1 h, 175 µM came to 97.2%. Moreover, in data set [2] (setting [3]), the fraction remaining at 3 h, 175 µM is 72.8%; the fraction remaining at 6 h, 175 µM came to 47.4%; the amount remaining at 9 h, 175 µM was 23.2%. For the same compound, in data set [2] (setting [4]), the fraction remaining at 3 h, 175 µM turned out to be 76.2%; the fraction remaining at 6 h, 175 µM worked out at 32.7%; the fraction remaining at 9 h, 175 µM is 11.3%. Also, in data set [2] (setting [5]), the share remaining at 24 h, 175 µM is 0%.

(Values after paper PMC10763561, “Red-light modulated ortho-chloro azobenzene photoswitch for peptide stapling via aromatic substitution” (RSC Chemical Biology, 2023).)
